PMC9569420 (Communications Biology, 2022)

Experiments:
PDK1/PDHK1 = target: T1, PDK1/PDHK1 (Homo sapiens, UniProt Q15118); assay: HotSpot kinase assay; format: biochemical; settings: 10µM; read-out: % Enzyme Activity (relative to DMSO controls)
T1 construct: purchased Reaction Biology Corporation
Experimental: (§1) Kinase activity were performed by Reaction Biology Corporation using the “HotSpot” assay platform modified from the published procedure.

DYRK4 = target: T2, DYRK4 (Homo sapiens, UniProt Q9NR20); assay: HotSpot kinase assay; format: biochemical; settings: 10µM; read-out: % Enzyme Activity (relative to DMSO controls)
T2 construct: purchased Reaction Biology Corporation
T2 sequence (Q9NR20 whole entry): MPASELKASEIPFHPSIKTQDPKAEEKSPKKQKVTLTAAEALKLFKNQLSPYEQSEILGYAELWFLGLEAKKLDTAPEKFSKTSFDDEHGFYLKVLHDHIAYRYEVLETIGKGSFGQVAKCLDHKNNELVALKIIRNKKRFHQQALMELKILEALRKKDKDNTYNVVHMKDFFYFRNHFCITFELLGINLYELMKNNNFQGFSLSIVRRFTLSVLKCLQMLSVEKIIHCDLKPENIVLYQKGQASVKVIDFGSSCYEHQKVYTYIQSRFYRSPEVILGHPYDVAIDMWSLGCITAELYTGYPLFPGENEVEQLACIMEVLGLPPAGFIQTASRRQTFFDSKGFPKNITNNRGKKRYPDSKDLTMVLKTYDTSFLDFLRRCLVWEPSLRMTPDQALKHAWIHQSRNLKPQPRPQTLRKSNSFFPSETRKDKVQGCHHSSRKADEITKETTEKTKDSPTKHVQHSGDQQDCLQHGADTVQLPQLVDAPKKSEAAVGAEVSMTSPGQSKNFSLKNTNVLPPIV
Experimental: as §1

ERK1 = target: T3, ERK1 (Homo sapiens, UniProt P27361); assay: HotSpot kinase assay; format: biochemical; settings: 10µM; read-out: % Enzyme Activity (relative to DMSO controls)
T3 construct: purchased Reaction Biology Corporation
T3 sequence (P27361 whole entry): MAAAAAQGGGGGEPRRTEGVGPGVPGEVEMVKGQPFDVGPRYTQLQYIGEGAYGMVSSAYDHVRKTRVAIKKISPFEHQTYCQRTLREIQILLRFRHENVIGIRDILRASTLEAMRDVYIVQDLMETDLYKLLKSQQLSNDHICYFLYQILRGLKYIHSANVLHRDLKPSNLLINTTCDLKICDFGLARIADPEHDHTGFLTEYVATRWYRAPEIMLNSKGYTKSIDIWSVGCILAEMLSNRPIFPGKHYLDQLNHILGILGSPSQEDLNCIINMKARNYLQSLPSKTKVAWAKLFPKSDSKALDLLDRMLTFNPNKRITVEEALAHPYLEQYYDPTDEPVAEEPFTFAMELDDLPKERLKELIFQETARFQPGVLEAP
Experimental: as §1

NEK7 = target: T4, NEK7 (Homo sapiens, UniProt Q8TDX7); assay: HotSpot kinase assay; format: biochemical; settings: 10µM; read-out: % Enzyme Activity (relative to DMSO controls)
T4 construct: purchased Reaction Biology Corporation
T4 sequence (Q8TDX7 whole entry): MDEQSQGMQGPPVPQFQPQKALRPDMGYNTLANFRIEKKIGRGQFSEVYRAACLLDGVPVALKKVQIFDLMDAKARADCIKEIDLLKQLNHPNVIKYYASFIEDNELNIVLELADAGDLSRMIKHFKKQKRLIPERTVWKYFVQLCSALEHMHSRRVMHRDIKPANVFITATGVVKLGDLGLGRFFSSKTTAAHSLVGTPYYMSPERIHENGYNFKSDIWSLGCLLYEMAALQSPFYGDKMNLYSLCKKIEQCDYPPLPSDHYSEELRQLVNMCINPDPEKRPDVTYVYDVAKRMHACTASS
Experimental: as §1

AMPK(A2/B1/G1) = target: T5, AMPK(A2/B1/G1) (Homo sapiens, UniProt P54646); assay: HotSpot kinase assay; format: biochemical; settings: 10µM; read-out: % Enzyme Activity (relative to DMSO controls)
T5 construct: purchased Reaction Biology Corporation
Experimental: as §1

AMPK(A2/B2/G1) = target: T6, AMPK(A2/B2/G1) (Homo sapiens, UniProt P54646); assay: HotSpot kinase assay; format: biochemical; settings: 10µM; read-out: % Enzyme Activity (relative to DMSO controls)
T6 construct: purchased Reaction Biology Corporation
Experimental: as §1

VRK2 = target: T7, VRK2 (Homo sapiens, UniProt Q86Y07); assay: HotSpot kinase assay; format: biochemical; settings: 10µM; read-out: % Enzyme Activity (relative to DMSO controls)
T7 construct: purchased Reaction Biology Corporation
Experimental: as §1

AMPK(A2/B2/G3) = target: T8, AMPK(A2/B2/G3) (Homo sapiens, UniProt P54646); assay: HotSpot kinase assay; format: biochemical; settings: 10µM; read-out: % Enzyme Activity (relative to DMSO controls)
T8 construct: purchased Reaction Biology Corporation
Experimental: as §1

AMPK(A1/B1/G1) = target: T9, AMPK(A1/B1/G1) (Homo sapiens, UniProt Q13131); assay: HotSpot kinase assay; format: biochemical; settings: 10µM; read-out: % Enzyme Activity (relative to DMSO controls)
T9 construct: purchased Reaction Biology Corporation
T9 sequence (Q13131 whole entry): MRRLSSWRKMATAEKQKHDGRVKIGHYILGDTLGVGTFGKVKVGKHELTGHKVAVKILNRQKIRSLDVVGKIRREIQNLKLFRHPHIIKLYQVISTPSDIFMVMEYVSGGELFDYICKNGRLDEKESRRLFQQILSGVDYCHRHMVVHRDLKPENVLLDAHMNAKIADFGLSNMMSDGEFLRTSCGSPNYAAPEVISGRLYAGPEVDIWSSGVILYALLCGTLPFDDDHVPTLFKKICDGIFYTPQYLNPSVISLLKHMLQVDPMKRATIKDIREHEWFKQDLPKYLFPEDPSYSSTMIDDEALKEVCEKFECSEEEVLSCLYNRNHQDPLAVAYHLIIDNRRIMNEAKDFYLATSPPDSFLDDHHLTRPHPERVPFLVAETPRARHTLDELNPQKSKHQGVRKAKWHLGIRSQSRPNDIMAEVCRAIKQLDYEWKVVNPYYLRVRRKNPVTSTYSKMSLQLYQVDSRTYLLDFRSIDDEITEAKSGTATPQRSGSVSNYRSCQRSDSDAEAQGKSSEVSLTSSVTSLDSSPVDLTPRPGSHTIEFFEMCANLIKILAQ
T9 sequence (Q9Y478 whole entry partner): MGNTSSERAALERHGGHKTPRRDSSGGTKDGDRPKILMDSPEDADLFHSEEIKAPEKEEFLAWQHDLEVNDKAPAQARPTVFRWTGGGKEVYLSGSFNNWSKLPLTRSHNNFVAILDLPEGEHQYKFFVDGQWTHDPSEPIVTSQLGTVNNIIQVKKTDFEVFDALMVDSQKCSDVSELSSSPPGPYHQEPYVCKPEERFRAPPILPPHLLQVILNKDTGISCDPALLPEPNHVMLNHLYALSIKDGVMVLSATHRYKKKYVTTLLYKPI
T9 sequence (P54619 whole entry partner): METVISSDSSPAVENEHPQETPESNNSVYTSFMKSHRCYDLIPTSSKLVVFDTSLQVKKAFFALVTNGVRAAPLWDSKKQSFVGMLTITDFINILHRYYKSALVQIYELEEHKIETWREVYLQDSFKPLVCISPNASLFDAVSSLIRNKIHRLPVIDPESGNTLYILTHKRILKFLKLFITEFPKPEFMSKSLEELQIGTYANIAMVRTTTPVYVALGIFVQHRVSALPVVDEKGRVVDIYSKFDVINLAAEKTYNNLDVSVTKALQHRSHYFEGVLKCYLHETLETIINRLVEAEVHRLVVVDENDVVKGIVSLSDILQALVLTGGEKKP
Experimental: as §1

HIPK1 = target: T10, HIPK1 (Homo sapiens, UniProt Q86Z02); assay: HotSpot kinase assay; format: biochemical; settings: 10µM; read-out: % Enzyme Activity (relative to DMSO controls)
T10 construct: purchased Reaction Biology Corporation
Experimental: as §1

ZAK/MLTK = target: T11, ZAK/MLTK (Homo sapiens, UniProt Q9NYL2); assay: HotSpot kinase assay; format: biochemical; settings: 10µM; read-out: % Enzyme Activity (relative to DMSO controls)
T11 construct: purchased Reaction Biology Corporation
Experimental: as §1

TGFBR2 = target: T12, TGFBR2 (Homo sapiens, UniProt P37173); assay: HotSpot kinase assay; format: biochemical; settings: 10µM; read-out: % Enzyme Activity (relative to DMSO controls)
T12 construct: purchased Reaction Biology Corporation
Experimental: as §1

TTBK1 = target: T13, TTBK1 (Homo sapiens, UniProt Q5TCY1); assay: HotSpot kinase assay; format: biochemical; settings: 10µM; read-out: % Enzyme Activity (relative to DMSO controls)
T13 construct: purchased Reaction Biology Corporation
Experimental: as §1

CK2a = target: T14, CK2a (Homo sapiens, UniProt P68400); assay: HotSpot kinase assay; format: biochemical; settings: 10µM; read-out: % Enzyme Activity (relative to DMSO controls)
T14 construct: purchased Reaction Biology Corporation
Experimental: as §1

AMPK(A1/B2/G1) = target: T15, AMPK(A1/B2/G1) (Homo sapiens, UniProt Q13131); assay: HotSpot kinase assay; format: biochemical; settings: 10µM; read-out: % Enzyme Activity (relative to DMSO controls)
T15 construct: purchased Reaction Biology Corporation
T15 sequence (Q13131 whole entry): as the sequence (Q13131 whole entry) above
T15 sequence (O43741 whole entry partner): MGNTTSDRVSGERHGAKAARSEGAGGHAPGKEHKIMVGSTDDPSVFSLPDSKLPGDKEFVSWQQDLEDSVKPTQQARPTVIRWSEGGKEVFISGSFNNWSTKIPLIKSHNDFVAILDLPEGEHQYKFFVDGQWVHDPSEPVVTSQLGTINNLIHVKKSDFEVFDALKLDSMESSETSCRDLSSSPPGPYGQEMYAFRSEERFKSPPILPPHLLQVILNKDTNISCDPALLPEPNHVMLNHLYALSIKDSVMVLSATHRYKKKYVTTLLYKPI
T15 sequence (P54619 whole entry partner): as the sequence (P54619 whole entry partner) above
Experimental: as §1

LOK/STK10 = target: T16, LOK/STK10 (Homo sapiens, UniProt O94804); assay: HotSpot kinase assay; format: biochemical; settings: 10µM; read-out: % Enzyme Activity (relative to DMSO controls)
T16 construct: purchased Reaction Biology Corporation
Experimental: as §1

TTBK2 = target: T17, TTBK2 (Homo sapiens, UniProt Q6IQ55); assay: HotSpot kinase assay; format: biochemical; settings: 10µM; read-out: % Enzyme Activity (relative to DMSO controls)
T17 construct: purchased Reaction Biology Corporation
Experimental: as §1

HPK1/MAP4K1 = target: T18, HPK1/MAP4K1 (Homo sapiens, UniProt Q92918); assay: HotSpot kinase assay; format: biochemical; settings: 10µM; read-out: % Enzyme Activity (relative to DMSO controls)
T18 construct: purchased Reaction Biology Corporation
Experimental: as §1

WEE1 = target: T19, WEE1 (Homo sapiens, UniProt P30291); assay: HotSpot kinase assay; format: biochemical; settings: read-out: % Enzyme Activity (relative to DMSO controls)
T19 construct: purchased Reaction Biology Corporation
Experimental: as §1

PDK4/PDHK4 = target: T20, PDK4/PDHK4 (Homo sapiens, UniProt Q16654); assay: HotSpot kinase assay; format: biochemical; settings: 10µM; read-out: % Enzyme Activity (relative to DMSO controls)
T20 construct: purchased Reaction Biology Corporation
Experimental: as §1

TRPM7/CHAK1 = target: T21, TRPM7/CHAK1 (Homo sapiens, UniProt Q96QT4); assay: HotSpot kinase assay; format: biochemical; settings: 10µM; read-out: % Enzyme Activity (relative to DMSO controls)
T21 construct: purchased Reaction Biology Corporation
Experimental: as §1

AMPK (A1/B2/G3) = target: T22, AMPK (A1/B2/G3) (Homo sapiens, UniProt Q13131); assay: HotSpot kinase assay; format: biochemical; settings: 10µM; read-out: % Enzyme Activity (relative to DMSO controls)
T22 construct: purchased Reaction Biology Corporation
T22 sequence (Q13131 whole entry): as the sequence (Q13131 whole entry) above
T22 sequence (O43741 whole entry partner): as the sequence (O43741 whole entry partner) above
T22 sequence (Q9UGI9 whole entry partner): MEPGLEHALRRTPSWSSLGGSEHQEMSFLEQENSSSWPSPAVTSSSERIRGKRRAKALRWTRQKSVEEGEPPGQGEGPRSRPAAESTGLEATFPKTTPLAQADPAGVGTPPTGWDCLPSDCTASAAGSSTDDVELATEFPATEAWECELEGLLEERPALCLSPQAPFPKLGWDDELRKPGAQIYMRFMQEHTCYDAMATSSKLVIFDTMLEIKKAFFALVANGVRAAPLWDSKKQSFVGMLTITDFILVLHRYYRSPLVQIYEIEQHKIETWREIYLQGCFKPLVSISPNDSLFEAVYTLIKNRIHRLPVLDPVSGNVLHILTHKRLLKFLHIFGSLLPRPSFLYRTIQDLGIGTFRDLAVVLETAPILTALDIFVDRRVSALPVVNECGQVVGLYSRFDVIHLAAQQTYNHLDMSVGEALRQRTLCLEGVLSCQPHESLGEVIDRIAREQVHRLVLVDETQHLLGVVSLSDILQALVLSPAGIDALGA
Experimental: as §1

AMPK (A2/B1/G3) = target: T23, AMPK (A2/B1/G3) (Homo sapiens, UniProt P54646); assay: HotSpot kinase assay; format: biochemical; settings: 10µM; read-out: % Enzyme Activity (relative to DMSO controls)
T23 construct: purchased Reaction Biology Corporation
Experimental: as §1

EIF2AK1 = target: T24, EIF2AK1 (Homo sapiens, UniProt Q9BQI3); assay: HotSpot kinase assay; format: biochemical; settings: 10µM; read-out: % Enzyme Activity (relative to DMSO controls)
T24 construct: purchased Reaction Biology Corporation
Experimental: as §1

COT1/MAP3K8 = target: T25, COT1/MAP3K8 (Homo sapiens, UniProt P41279); assay: HotSpot kinase assay; format: biochemical; settings: 10µM; read-out: % Enzyme Activity (relative to DMSO controls)
T25 construct: purchased Reaction Biology Corporation
Experimental: as §1

AMPK(A1/B1/G2) = target: T26, AMPK(A1/B1/G2) (Homo sapiens, UniProt Q13131); assay: HotSpot kinase assay; format: biochemical; settings: 10µM; read-out: % Enzyme Activity (relative to DMSO controls)
T26 construct: purchased Reaction Biology Corporation
T26 sequence (Q13131 whole entry): as the sequence (Q13131 whole entry) above
T26 sequence (Q9Y478 whole entry partner): as the sequence (Q9Y478 whole entry partner) above
T26 sequence (Q9UGJ0 whole entry partner): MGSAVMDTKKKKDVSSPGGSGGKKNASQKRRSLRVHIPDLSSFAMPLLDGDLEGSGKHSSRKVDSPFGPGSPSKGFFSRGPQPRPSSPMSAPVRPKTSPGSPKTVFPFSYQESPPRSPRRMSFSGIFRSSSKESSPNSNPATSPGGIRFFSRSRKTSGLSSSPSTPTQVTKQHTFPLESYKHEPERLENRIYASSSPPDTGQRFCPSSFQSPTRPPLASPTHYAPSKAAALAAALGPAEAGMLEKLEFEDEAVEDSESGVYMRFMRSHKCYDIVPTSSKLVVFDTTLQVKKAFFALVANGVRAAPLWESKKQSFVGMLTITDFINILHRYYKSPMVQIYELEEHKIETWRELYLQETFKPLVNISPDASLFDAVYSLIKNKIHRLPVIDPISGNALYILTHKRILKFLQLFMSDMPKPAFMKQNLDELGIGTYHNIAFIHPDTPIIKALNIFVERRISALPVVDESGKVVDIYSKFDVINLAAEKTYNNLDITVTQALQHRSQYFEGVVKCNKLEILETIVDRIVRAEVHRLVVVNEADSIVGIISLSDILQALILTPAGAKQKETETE
Experimental: as §1

WNK3 = target: T27, WNK3 (Homo sapiens, UniProt Q9BYP7); assay: HotSpot kinase assay; format: biochemical; settings: 10µM; read-out: % Enzyme Activity (relative to DMSO controls)
T27 construct: purchased Reaction Biology Corporation
Experimental: as §1

PDK2/PDHK2 = target: T28, PDK2/PDHK2 (Homo sapiens, UniProt Q15119); assay: HotSpot kinase assay; format: biochemical; settings: 10µM; read-out: % Enzyme Activity (relative to DMSO controls)
T28 construct: purchased Reaction Biology Corporation
Experimental: as §1

NEK6 = target: T29, NEK6 (Homo sapiens, UniProt Q9HC98); assay: HotSpot kinase assay; format: biochemical; settings: 10µM; read-out: % Enzyme Activity (relative to DMSO controls)
T29 construct: purchased Reaction Biology Corporation
Experimental: as §1

ARAF = target: T30, ARAF (Homo sapiens, UniProt P10398); assay: HotSpot kinase assay; format: biochemical; settings: 10µM; read-out: % Enzyme Activity (relative to DMSO controls)
T30 construct: purchased Reaction Biology Corporation
Experimental: as §1

AMPK(A2/B2/G2) = target: T31, AMPK(A2/B2/G2) (Homo sapiens, UniProt P54646); assay: HotSpot kinase assay; format: biochemical; settings: 10µM; read-out: % Enzyme Activity (relative to DMSO controls)
T31 construct: purchased Reaction Biology Corporation
Experimental: as §1

IR = target: T32, IR (Homo sapiens, UniProt P06213); assay: biochemical
T32 construct: purchased Reaction Biology Corporation
T32 sequence (P06213 980-1382 limits assumed): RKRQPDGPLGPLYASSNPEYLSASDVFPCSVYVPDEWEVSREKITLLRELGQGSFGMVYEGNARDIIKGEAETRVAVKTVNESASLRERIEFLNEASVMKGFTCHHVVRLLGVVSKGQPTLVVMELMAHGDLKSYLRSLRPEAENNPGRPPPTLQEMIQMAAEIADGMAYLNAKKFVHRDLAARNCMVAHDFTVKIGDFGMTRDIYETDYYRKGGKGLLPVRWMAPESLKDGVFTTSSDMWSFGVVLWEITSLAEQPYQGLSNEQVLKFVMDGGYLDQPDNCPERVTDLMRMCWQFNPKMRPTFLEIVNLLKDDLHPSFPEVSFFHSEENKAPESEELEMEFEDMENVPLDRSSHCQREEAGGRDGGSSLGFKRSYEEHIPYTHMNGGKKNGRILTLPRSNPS

in vitro = settings: human, Huh-7.5 cells infected with SARS-CoV-2
HCK = target: T33, HCK (Homo sapiens, UniProt P08631); assay: HotSpot kinase assay; format: biochemical; settings: read-out: % Enzyme Activity (relative to DMSO controls)
T33 construct: purchased Reaction Biology Corporation
T33 sequence (P08631 whole entry): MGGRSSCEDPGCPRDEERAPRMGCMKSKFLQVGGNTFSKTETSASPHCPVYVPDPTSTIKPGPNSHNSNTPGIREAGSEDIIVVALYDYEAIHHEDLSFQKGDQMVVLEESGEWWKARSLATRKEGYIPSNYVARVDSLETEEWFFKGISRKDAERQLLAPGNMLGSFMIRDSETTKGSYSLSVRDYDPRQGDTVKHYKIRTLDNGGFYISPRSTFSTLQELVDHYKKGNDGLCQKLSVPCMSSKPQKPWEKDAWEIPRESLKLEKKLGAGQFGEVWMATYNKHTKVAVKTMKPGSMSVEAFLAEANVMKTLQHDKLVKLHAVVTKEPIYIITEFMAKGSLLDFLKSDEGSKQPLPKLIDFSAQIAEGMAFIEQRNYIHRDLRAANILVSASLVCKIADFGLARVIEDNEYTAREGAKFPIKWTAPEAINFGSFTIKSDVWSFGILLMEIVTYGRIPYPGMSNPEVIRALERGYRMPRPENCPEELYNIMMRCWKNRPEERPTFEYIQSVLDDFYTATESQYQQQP

LRRK2 = target: T34, LRRK2 (Homo sapiens, UniProt Q5S007); assay: HotSpot kinase assay; format: biochemical; settings: read-out: % Enzyme Activity (relative to DMSO controls)
T34 construct: purchased Reaction Biology Corporation

CDK17/cyclin Y (PCTK2) = target: T35, CDK17/cyclin Y (PCTK2) (Homo sapiens, UniProt Q00537); assay: HotSpot kinase assay; format: biochemical; settings: read-out: % Enzyme Activity (relative to DMSO controls)
T35 construct: purchased Reaction Biology Corporation

MSSK1/STK23 = target: T36, MSSK1/STK23 (Homo sapiens, UniProt Q9UPE1); assay: HotSpot kinase assay; format: biochemical; settings: read-out: % Enzyme Activity (relative to DMSO controls)
T36 construct: purchased Reaction Biology Corporation

STK39/STLK3 = target: T37, STK39/STLK3 (Homo sapiens, UniProt Q9UEW8); assay: HotSpot kinase assay; format: biochemical; settings: read-out: % Enzyme Activity (relative to DMSO controls)
T37 construct: purchased Reaction Biology Corporation

CDK2/cyclin A1 = target: T38, CDK2/cyclin A1 (Homo sapiens, UniProt P24941); assay: HotSpot kinase assay; format: biochemical; settings: read-out: % Enzyme Activity (relative to DMSO controls)
T38 construct: purchased Reaction Biology Corporation

SMILES: CO[C@@H]1[C@H](N(C)C(=O)CCC(=O)NCc2cn(CCCS(=O)(=O)O)nn2)C[C@H]2O[C@]1(C)n1c3ccccc3c3c4c(c5c6ccccc6n2c5c31)C(=O)NC4 [CIMSS]
- remaining activity at 10 µM (PDK1/PDHK1): 97.2%
- remaining activity at 10 µM (DYRK4): 92%
- remaining activity at 10 µM (ERK1): 91.8%
- remaining activity at 10 µM (NEK7): 88.5%
- remaining activity at 10 µM (AMPK(A2/B1/G1)): 0.76%
- remaining activity at 10 µM (AMPK(A2/B2/G1)): 0.34%
- remaining activity at 10 µM (VRK2): 81.8%
- remaining activity at 10 µM (AMPK(A2/B2/G3)): 0.63%
- remaining activity at 10 µM (AMPK(A1/B1/G1)): 1.14%
- remaining activity at 10 µM (HIPK1): 36.4%
- remaining activity at 10 µM (ZAK/MLTK): 82.7%
- remaining activity at 10 µM (TGFBR2): 111%
- remaining activity at 10 µM (TTBK1): 67.7%
- remaining activity at 10 µM (CK2a): 71.4%
- remaining activity at 10 µM (AMPK(A1/B2/G1)): 0.73%
- remaining activity at 10 µM (LOK/STK10): 2.86%
- remaining activity at 10 µM (TTBK2): 95.1%
- remaining activity at 10 µM (HPK1/MAP4K1): 2.66%
- remaining activity at 10 µM (WEE1): 44.2%
- remaining activity at 10 µM (PDK4/PDHK4): 93.2%
- remaining activity at 10 µM (TRPM7/CHAK1): 91.6%
- remaining activity at 10 µM (AMPK (A1/B2/G3)): 1.13%
- remaining activity at 10 µM (AMPK (A2/B1/G3)): 0.67%
- remaining activity at 10 µM (EIF2AK1): 82.5%
- remaining activity at 10 µM (COT1/MAP3K8): 110%
- remaining activity at 10 µM (AMPK(A1/B1/G2)): 1.46%
- remaining activity at 10 µM (WNK3): 66.4%
- remaining activity at 10 µM (PDK2/PDHK2): 95.5%
- remaining activity at 10 µM (NEK6): 89%
- remaining activity at 10 µM (ARAF): 154%
- remaining activity at 10 µM (AMPK(A2/B2/G2)): 0.73%
- IC50 (IR; Supplementary Table 1, Insulin Receptor, read-out: IC50 (Molar concentration)): 0.803 µM
- remaining activity at 10 µM (IR; read-out: % Enzyme Activity (relative to DMSO controls), 10µM): 15.8%
- viability at 24 h, 0.78125 µM (in vitro): 84.7%
- viability at 24 h, 1.5625 µM (in vitro): 85.5%
- viability at 24 h, 3.125 µM (in vitro): 87.6%
- viability at 24 h, 25 µM (in vitro): 87.9%
- viability at 24 h, 50 µM (in vitro): 97.2%
- viability at 72 h, 0.78125 µM (in vitro): 94.8%
- viability at 72 h, 25 µM (in vitro): 80.4%
- viability at 72 h, 50 µM (in vitro): 70.1%
- remaining activity at 10 µM (HCK): 7.23%
- remaining activity at 10 µM (LRRK2): 1.69%
- remaining activity at 10 µM (CDK17/cyclin Y (PCTK2)): 54.2%
- remaining activity at 10 µM (MSSK1/STK23): 67.7%
- remaining activity at 10 µM (STK39/STLK3): 19.6%
- remaining activity at 10 µM (CDK2/cyclin A1): 7.95%
